Test results reported in patent US6596500B1, “Binding of retinoids to M6P/IGF-II receptor” (The General Hospital Corporation, priority 1998, dated 2003).
Values belong to the compound of their own block, whether it stands above or below them.

Experiments:
[1] = biological target: T1, M6P/IGF2R (300 kDa protein) (Rattus norvegicus, UniProt G3V824); assay: [3H]RA photoaffinity labeling of the 300 kDa protein; type: binding; conditions: for Inhibition of [3H]RA photolabeling/binding to M6P/IGF2R by nonradioactive competitor: 25- to 50-fold molar excess (50 μM) competitor added before photolysis
T1 construct: about 100 μg of proteins of membrane preparations or serum; from tissue; host or cells: membrane preparations of cultured neonatal Sprague-Dawley rat cardiac myocytes
Procedure: Photoaffinity Labeling Photoaffinity labeling was performed essentially according to the methods described in Bernstein et al., 1995, Proc. Natl. Acad. Sci. USA 92:654-658. […] After the ethanol has been evaporated with nitrogen, about 100 μg of proteins of membrane preparations or serum [serum proteins were first concentrated using a Biomax-100K Centrifugal Filter Device (Millipore)] were then added to each tube. The final volume was adjusted to 100 μl with 50 mM Tris buffer (pH 7.4) containing protease inhibitors (5 mM EDTA, 5 mM EGTA, 0.1 mM phenylmethylsulfonyl fluoride, 0.05% NaN3, 20 μg/ml aprotinin, 10 μg/ml benzamidine and 12.5 μg/ml chymostatin) and 50 μM butylated hydroxytoluene (a radical scavenger, used to minimize the non-specific labeling) for a final concentration of 1 μM labeled retinoic acid. The samples were incubated at room temperature with agitation for 1 hour in the dark. The samples were exposed to an intense 365-nm UV light source (Model B 100AP, UPland, CA) for 7 min. […] To remove the non-covalently bound ligands, the photolabeled samples were extracted with chloroform/methanol (2:1), or washed once by centrifugation for membrane samples only).
Fluorography The resultant protein pellets were dissolved in SDS sample buffer containing 5% β-mercapto-ethanol and heated at 100° C. for 5 min. These samples were then run on 7% polyacrylamide gels (30:0.2, acrylamide/bisacrylamide ratio), using conventional SDS/PAGE techniques. After electrophoresis, the gels were stained with Coomassie blue, soaked in Amplifier (Amersham, Life Science) for 30 minutes, dried by a vacuum gel dryer and then exposed to Hyperfilm-TM X-ray films (Amersham, Life Science) at […] for 1-3 days.

[2] = biological target: T2, partially-purified neonatal rat serum IGF2R (Rattus norvegicus, UniProt G3V824); assay: Competitive radioligand (10 nM [3H]RA) binding assay; conditions: n=3, read-out: IC50 (50% inhibitory concentration) for [3H]RA binding
T2 construct: both intact (300 kDa) and truncated (260 kDa) forms of M6P/IGF-II receptor exist in the serum; from tissue; host or cells: neonatal rat serum, FPLC Sepharose-12 fraction
Procedure: Partially purified M6P/IGF-II receptors from neonatal rat serum was prepared using a Fast Protein Liquid Chromatography (FPLC) system equipped with a Sepharose-12 column (Pharmacia). The partially purified M6P/IGF2R protein was diluted in binding buffer (20 mM Tris-HCl, pH 8.0/150 mM NaCl/1mM DTT/protease inhibitors) at a concentration of 50 Ag/ml. […] Incubation was carried out at 22° C. for 2 h in the dark. After the incubation, 0.2 ml chilled charcoal-dextran suspension (charcoal/dextran/glycerol=0.5%/0.05%/20%) was added to remove the unbound ligand.

[3] = system: neonatal rat cardiac myocytes; assay: Growth, morphology and apoptosis of cardiac myocytes; type: cell-based; conditions: 48 hours
Procedure: Cultured neonatal rat cardiac myocytes were known to express high levels of the M6P/IGF2R protein. The effect of RA on the growth of normal, neonatal rat cardiac myocytes was examined.
Cell Isolation and Culture For the photoaffinity labeling experiments, cardiac myocytes were isolated from 1-day-old neonatal Sprague-Dawley rats, using the Neonatal Cardiomyocyte Isolation System (Worthington). The isolated cell were cultured on Petri dishes with culture medium (F-10 nutrient mixture/10% horse serum/5% fetal bovine serum/50 μg/ml streptomycin/50 units/ml penicillin G). Cells were used for experiments after 2-6 days of culture.

P388D1 cells = assay: Morphology, growth and apoptosis of P388D1 cells overexpressing M6P/IGF2R; type: cell-based, mouse; conditions: P388D1 cells overexpressing M6P/IGF2R
Procedure: FIG. 10 is a graph showing the effect of RA treatment on growth rate of P388D1 cells overexpressing M6P/IGF2R protein and P388D1 controls. Open circles, vector control cells without RA treatment; closed circles, vector control cells with 1 μM RA treatment; open triangles, overexpressing cells without RA treatment; closed triangles overexpressing cells with 1 μM RA treatment.
We examined M6P/IGF2R-mediated effects of RA in mouse macrophage P388D1 cells, which are the best characterized cells that lack the M6P/IGF2R protein.

neonatal rat fibroblasts = assay: Immunofluorescence of cathepsin B distribution in fibroblasts; type: cell-based; conditions: RAR antagonist with RA
Text: FIGS. 8A and 8B are photomicrographs showing effect of retinoic acid on the distribution of cathepsin B in neonatal rat fibroblasts. […] The enzyme was found mainly in the perinuclear area. […] Bar represents 4 μm.
Since biosynthetic transport of lysosomal enzymes from the TGN to endosomes/lysosomes is mainly mediated by the M6P/IGF2R (Sohar et al., 1998, Biochem. J. 330:903-908), an enhanced trafficking of the receptor should lead to an increased translocation of the M6P-containing lysosomal enzymes from the TGN to lysosomes. To test this, we examined the effect of RA on the intracellular distribution of cathepsin B, a lysosomal protease known to be transported in a M6P-dependent manner in fibroblasts (Hanewinkel et al., 1987, J. Diol. Chem. 262:12351-12355). […] The distribution was similar to that of M6P/IGF2R (shift from perinuclear area to cytoplasmic vesicles throughout the cytoplasm).
(§1) Intracellular Trafficking Materials Retinoic acid was obtained from Sigma Chem. Co. (St. Louis, Mo.). The synthetic retinoids used (AGN193109, TTNPB) were produced by Allergan Inc. (Irvine, Calif.). Stably-transfected P388D1 cells re-expressing the M6P/IGF2R were provided by Dr. William S. Sly (St. Louis University). The rabbit polyclonal antibody against the rat M6P/IGF-II receptor was a gift from Dr. R.G. MacDonald (University of Nebraska). […]

M6P/IGF2R = M6P/IGF2R (Rattus norvegicus, UniProt G3V824); assay: Immunofluorescence of M6P/IGF2R distribution in fibroblasts; type: cell-based; design: endogenous in cells; host or cells: primary neonatal rat cardiac fibroblasts; conditions: RAR antagonist with RA
Text: FIGS. 7A and 7B are photo micrographs showing the effect of retinoic acid on the distribution of the M6P/IGF2R in neonatal rat fibroblasts. […] The receptor was concentrated primarily in the perinuclear structure (probably the TGN area). […] Bar represents 4 μm.
To determine if RA affects intracellular trafficking of the M6P/IGF2R, distribution of the receptor in neonatal rat fibroblasts with or without RA treatment was visualized by immunofluorescence. The primary antibody used to target the receptor was a polyclonal anti-rat M6P/IGF2R (full length) rabbit IgG with high specificity. A non-immuno-rabbit IgG was used as a negative control. As indicated by fluorescence (FIGS. 7A and 7B), the M6P/IGF2R in the fibroblasts is normally concentrated primarily in the perinuclear structure (probably the TGN). […] This indicated a potentiating effect of RA on the trafficking of the M6P/IGF2R from the TGN to the endosomes/lysosomes.
as §1

T1 sequence (G3V824 36-2481): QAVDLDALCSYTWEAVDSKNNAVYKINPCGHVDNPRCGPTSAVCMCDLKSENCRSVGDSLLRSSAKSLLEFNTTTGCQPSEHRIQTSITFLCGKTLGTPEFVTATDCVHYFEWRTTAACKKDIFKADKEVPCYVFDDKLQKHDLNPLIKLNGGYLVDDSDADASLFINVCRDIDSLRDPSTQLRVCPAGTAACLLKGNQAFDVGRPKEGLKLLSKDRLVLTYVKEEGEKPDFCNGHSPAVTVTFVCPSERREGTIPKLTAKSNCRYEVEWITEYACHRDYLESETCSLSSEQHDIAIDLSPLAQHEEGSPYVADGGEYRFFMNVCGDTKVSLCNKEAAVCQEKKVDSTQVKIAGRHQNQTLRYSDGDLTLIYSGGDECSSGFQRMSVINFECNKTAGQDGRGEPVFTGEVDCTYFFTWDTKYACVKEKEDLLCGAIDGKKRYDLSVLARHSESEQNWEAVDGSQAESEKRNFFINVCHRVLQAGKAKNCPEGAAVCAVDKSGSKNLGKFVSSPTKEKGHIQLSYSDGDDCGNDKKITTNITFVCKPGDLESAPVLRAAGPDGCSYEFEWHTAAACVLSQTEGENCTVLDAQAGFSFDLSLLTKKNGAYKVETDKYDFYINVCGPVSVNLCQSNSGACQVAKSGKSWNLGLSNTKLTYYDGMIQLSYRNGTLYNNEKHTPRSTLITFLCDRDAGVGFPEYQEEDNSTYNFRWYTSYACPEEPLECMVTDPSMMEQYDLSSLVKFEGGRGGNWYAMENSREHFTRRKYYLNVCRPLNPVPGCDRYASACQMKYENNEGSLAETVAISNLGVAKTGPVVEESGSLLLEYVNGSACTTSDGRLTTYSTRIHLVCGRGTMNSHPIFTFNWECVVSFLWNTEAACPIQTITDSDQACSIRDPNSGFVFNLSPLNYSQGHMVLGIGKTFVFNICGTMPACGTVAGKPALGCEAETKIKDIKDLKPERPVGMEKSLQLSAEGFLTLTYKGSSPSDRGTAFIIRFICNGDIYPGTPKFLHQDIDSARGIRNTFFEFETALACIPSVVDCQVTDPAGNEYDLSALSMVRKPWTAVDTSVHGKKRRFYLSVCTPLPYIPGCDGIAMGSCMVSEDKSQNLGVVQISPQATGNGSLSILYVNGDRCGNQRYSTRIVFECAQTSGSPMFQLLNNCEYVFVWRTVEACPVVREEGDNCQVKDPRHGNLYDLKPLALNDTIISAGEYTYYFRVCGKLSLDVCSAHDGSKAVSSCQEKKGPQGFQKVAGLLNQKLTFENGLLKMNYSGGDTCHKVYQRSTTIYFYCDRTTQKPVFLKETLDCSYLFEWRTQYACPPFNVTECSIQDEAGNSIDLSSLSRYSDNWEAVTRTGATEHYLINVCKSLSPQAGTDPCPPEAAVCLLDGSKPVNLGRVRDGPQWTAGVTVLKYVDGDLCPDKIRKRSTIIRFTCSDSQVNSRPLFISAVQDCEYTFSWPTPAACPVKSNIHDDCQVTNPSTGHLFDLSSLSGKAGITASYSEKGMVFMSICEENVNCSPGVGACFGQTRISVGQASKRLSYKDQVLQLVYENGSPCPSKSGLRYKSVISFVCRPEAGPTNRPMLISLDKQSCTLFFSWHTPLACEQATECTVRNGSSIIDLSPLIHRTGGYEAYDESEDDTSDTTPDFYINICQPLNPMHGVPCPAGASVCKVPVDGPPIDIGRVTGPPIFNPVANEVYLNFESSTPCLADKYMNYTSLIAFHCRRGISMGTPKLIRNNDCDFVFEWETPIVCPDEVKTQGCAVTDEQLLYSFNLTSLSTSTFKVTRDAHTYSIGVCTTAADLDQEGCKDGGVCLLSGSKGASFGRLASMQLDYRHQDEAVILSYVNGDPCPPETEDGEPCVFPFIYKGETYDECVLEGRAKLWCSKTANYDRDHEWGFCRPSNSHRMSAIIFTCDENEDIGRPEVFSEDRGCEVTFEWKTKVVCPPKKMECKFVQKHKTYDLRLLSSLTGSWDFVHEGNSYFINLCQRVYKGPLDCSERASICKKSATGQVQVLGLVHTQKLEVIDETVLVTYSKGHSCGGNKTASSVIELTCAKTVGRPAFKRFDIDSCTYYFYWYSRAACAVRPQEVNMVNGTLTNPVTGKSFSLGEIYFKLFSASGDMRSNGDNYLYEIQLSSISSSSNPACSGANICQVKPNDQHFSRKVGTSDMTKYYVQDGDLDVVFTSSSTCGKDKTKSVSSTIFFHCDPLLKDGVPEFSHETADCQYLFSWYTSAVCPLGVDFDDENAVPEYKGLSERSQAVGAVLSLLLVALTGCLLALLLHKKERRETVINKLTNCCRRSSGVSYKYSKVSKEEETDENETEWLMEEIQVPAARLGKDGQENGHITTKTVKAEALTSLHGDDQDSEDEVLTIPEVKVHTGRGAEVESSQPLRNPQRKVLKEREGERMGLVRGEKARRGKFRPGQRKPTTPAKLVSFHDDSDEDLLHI
T2 sequence (G3V824 36-2481): as above
Chain of M6P/IGF2R (G3V824 36-2481): as above

Compound: Cc1ccc(C2=CCC(C)(C)c3ccc(C#Cc4ccc(C(=O)O)cc4)cc32)cc1 [AGN193109]
Blocking of RA effect on cathepsin B distribution by RAR antagonist (neonatal rat fibroblasts): neither blocked by the RAR antagonist
Blocking of RA effect on M6P/IGF2R distribution by RAR antagonist (M6P/IGF2R): neither blocked by the RAR antagonist

Compound: CC1=C(/C=C/C(C)=C/C=C/C(C)=C/C=O)C(C)(C)CCC1 [retinal]
Induction of the RA-like effects on morphology, proliferation and apoptosis (P388D1 cells): similarly induced

Compound: CC1=C(/C=C/C(C)=C\C=C\C(C)=C\C(=O)O)C(C)(C)CCC1 [9-cis-RA, 9-cis-retinoic acid]
Inhibition of [3H]RA photolabeling/binding to M6P/IGF2R by nonradioactive competitor [1]: inhibited the binding

Continued, in another order:

Inhibition of [3H]RA photolabeling/binding to M6P/IGF2R by nonradioactive competitor [1]: inhibited the binding
IC50 [2]: 120 ± 18 nM
Compound: CC1=C(/C=C/C(C)=C/C=C/C(C)=C/CO)C(C)(C)CCC1 [retinol]
Cell morphology and growth [3]: exerted effects on cell morphology and growth similar to the effects of RA
Induction of the RA-like effects on morphology, proliferation and apoptosis (P388D1 cells): similarly induced

Inhibition of [3H]RA photolabeling/binding to M6P/IGF2R by nonradioactive competitor [1]: inhibited the binding
IC50 [2]: 135 ± 30 nM
Compound: retinol acetate
Cell morphology and growth [3]: exerted effects on cell morphology and growth similar to the effects of RA
Induction of the RA-like effects on morphology, proliferation and apoptosis (P388D1 cells): similarly induced

Inhibition of [3H]RA binding to M6P/IGF-II receptor by other receptor ligands ([1]; [3H]RA affinity photolabeling): Neither M6P nor IGF-II inhibited
Compound: IGF-II: insulin-like growth factor II (a protein), ligand of the M6P/IGF-II receptor

Inhibition of [3H]RA photolabeling/binding to M6P/IGF2R by nonradioactive competitor [1]: inhibited the binding
Compound: CC1=C(/C=C/C(C)=C/C=C/C(C)=C\C(=O)O)C(C)(C)CCC1 [13-cis-RA, 13-cis-retinoic acid]

[3H]RA labeling of M6P/IGF-II receptor, presence vs absence of M6P ([1]; 5 mM M6P, measured by NIH Image, n=3): 2 fold
Enhancement of cross-linking of [3H]RA to M6P/IGF-II receptor ([1]; [3H]RA affinity photolabeling): significantly enhanced
Inhibition of [3H]RA binding to M6P/IGF-II receptor by other receptor ligands ([1]; [3H]RA affinity photolabeling): Neither M6P nor IGF-II inhibited
Compound: O=C[C@@H](O)[C@@H](O)[C@H](O)[C@H](O)COP(=O)(O)O [M6P, mannose 6-phosphate]
